Legend:
[1] = system: spleen lymphocytes stimulated with Ehrlich ascites carcinoma cells; assay: Cancer cell-specific proliferation of spleen lymphocytes from treated tumor-bearing mice; format: in vivo, ddY mice; settings: for 3H-thymidine uptake: 10 mg/kg intraperitoneal
Method: ddY mice (female, 7 weeks old) were purchased from Japan SLC and pre-bred 1 week before using in experiments.
1×10^6 Ehrlich ascites carcinoma cells were intraperitoneally inoculated to each mouse. 10 mg/kg of cyclopentene, 30 mg/kg of GM or 10 mg/kg of dipropionylcyclopentene was intraperitoneally administered to the mouse on the day after the inoculation. Saline was administered to a control mouse.
A spleen was taken out from the mouse 10 days after the inoculation with cancer cells, finely minced and suspended in RPMI-1640 medium (Gibco) containing 10% FCS (HyClone) to obtain a single cell suspension. Adhesive cells in the cell suspension adhered to a plastic Petri dish were removed and non-adhesive cells were used as spleen lymphocytes.
The spleen lymphocytes were suspended in RPMI-1640 medium containing 10% FCS at a concentration of 2×10^6/ml. 100 μl/well of the suspension was seeded into a microtiter plate.
Stimulated cells were prepared as follows. Mitomycin C (Kyowa Hakko Kogyo) was added to a concentration of 50 μg/ml to Ehrlich ascites carcinoma cells suspended in RPMI-1640 medium at a concentration of 2×10^6 cells/ml. The cells were treated at 37° C. for 30 minutes, washed twice and then suspended in RPMI-1640 medium containing 10% FCS to prepare stimulated cells at a concentration of 2×10^6 cells/ml. 100 μl of the thus prepared stimulated cells was overlaid onto each well of the plate into which 100 μl/well of the spleen lymphocytes had been added. The plate was incubated at 37° C. for 5 days in a 5% CO2 incubator. 37 kBq of ^3H-thymidine (Daiichi Pure Chemicals) was added to the well to pulse-label the cells on the day before the completion of the cultivation. After cultivation, the cells were harvested on a glass filter to measure the radioactivity.

NK cells = format: in vivo, ddY mice; settings: mice administered intraperitoneally
Method: ddY mice (female, 7 weeks old) were purchased from Japan SLC and pre-bred for 1 week before using in experiments.
1×10^6 Ehrlich ascites carcinoma cells were intraperitoneally inoculated to each mouse. 10 mg/kg of cyclopentenone, 30 mg/kg of GM or 10 mg/kg of dipropionylcyclopentenone was intraperitoneally administered to the mouse on the day after the inoculation. Saline was administered to a control mouse.
A spleen was taken out from the mouse 10 days after the inoculation with cancer cells, finely minced and suspended in RPMI-1640 medium containing 10% FCS (HyClone) to obtain a single cell suspension. Adhesive cells adhered to a plastic Petri dish were removed from the cell suspension and non-adhesive cells were used as NK cells.
The NK cells were suspended in RPMI-1640 medium containing 10% FCS at a concentration of 6×10^6/ml. 100 μl/well of the suspension was seeded into a microtiter plate.
Target cells were prepared as follows. 3700 kBq of ^51Cr (Amersham) was added to 1×10^6 YAC-1 cells (Dainippon Pharmaceutical). The cells were cultured at 37° C. for 1 hour for labeling. The labeled cells were washed twice and then suspended in RPMI-1640 medium containing 10% FCS at a concentration of 2×10^5 cells/ml. […] The radioactivity (experimental value) was measured using an auto gamma counter.
100 μl of the culture medium was added to the reaction system in place of the NK cells and the radioactivity was measured in order to measure the radioactivity spontaneously released from the target cells (control value).
Furthermore, the radioactivity released into the supernatant when 1% Triton (Nacalai Tesque) was added to the reaction system to lyse the 51Cr-labeled YAC-1 cells was measured in order to measure the total radioactivity contained in the reaction system (total radioactivity value).
The cytotoxicity (%) specifically mediated by the NK cells can be determined according to the following equation.
Cytotoxicity (%)=[(experimental value−control value)/(total radioactivity value−control value)]×100

[2] = system: tumor necrosis factor (TNF)-α; assay: Endotoxin shock model, serum TNF-α after LPS; format: in vivo, CDF1 mice
Method: (1) A model for endotoxin shock was constructed using CDF1 mice (8 weeks old, female, purchased from Japan SLC). Distilled water (control), or 10 mg/kg of diisopropionylcyclopentenone or diisobutyrylcyclopentenone was subcutaneously administered to a mouse. 20 μg of lipopolysaccharide (LPS; Sigma) was intraperitoneally administered to each mouse 30 minutes after the administration. Blood was collected from the mouse 1.5 hours after the administration with LPS. The amount of tumor necrosis factor (TNF)-α in a serum separated from the collected blood was measured using a commercially available ELISA kit (R&D). Each group consisted of 4 mice.
(2) A model for endotoxin shock was constructed by intraperitoneally administering 20 μg of LPS to a CDF1 mouse (8 weeks old, female). 30 or 100 mg/kg of dipropionylcyclopentenone or diisobutyrylcyclopentenone was orally administered 30 minutes before the administration with LPS. Blood was collected from the mouse 1.5 hours after the administration with LPS. The amount of TNF-α in a serum separated from the collected blood was measured using an ELISA kit. Each group consisted of 4 mice.

Mouse solid tumor Meth A = assay: Mouse solid tumor Meth A, weight of cancer; format: in vivo, BALB/c mouse; settings: subcutaneous at tumor site for successive 5 days, after 2 weeks
Method: (2) Mouse solid tumor Meth A (2×10^6 cells/mouse) was subcutaneously injected into a back of a 8-weeks old female BALB/c mouse. Subsequently, dipropionylcyclopentenone was subcutaneously injected at the same site for successive 5 days. Saline was subcutaneously injected to a control group in a similar manner. Each group consisted of 8 mice.
After 2 weeks, the cancerous tissue formed in the back of the mouse was taken out and the weight of the tissue was measured.

Meth A = assay: Ascitic cancer Meth A, prolongation of survival, 5 successive days; format: in vivo, BALB/c mouse; settings: for 30-day survival number: groups of 8 mice
Method: (3) The carcinostatic activities of dipropionylcyclopentenone and diisobutyrylcyclopentenone against various ascitic cancers were examined using two types of cancer cells, Ehrlich ascites carcinoma (EAC) and Meth A, administered intraperitoneally or orally at a varying dose.
Dipropionylcyclopentenone or diisobutyrylcyclopentenone was intraperitoneally or orally administered for 5 successive days from the day after the transplantation with cancer cells. Injectable distilled water was administered to a control group in a similar manner. Average days of survival, prolongation rate and 30-day survival number were calculated for groups each consisting of 8 mice.

Which results are given for `CCC(=O)OC1C=CC(=O)C1OC(=O)CC` (stereo not shown)?
3H-thymidine uptake ([1]; no stimulation with cancer cell): 9250 CPM; 3H-thymidine uptake ([1]; stimulation with cancer cell): 20748 CPM; Growth of spleen lymphocytes on stimulation with cancer cells (statement) ([1]; mice administered intraperitoneally): significantly enhanced; Activation of NK cells (statement) (NK cells): Activation of NK cells was observed; TNF-α production compared with control group (statement) ([2]; 10 mg/kg subcutaneous): significantly suppressed; Amount of TNF mean ± SE ([2]; 10 mg/kg subcutaneous 30 minutes before LPS, serum 1.5 hours after LPS): 4.61 ± 0.57 ng/mL; TNF mean ± SE ([2]; 30 mg/kg oral 30 minutes before LPS, serum 1.5 hours after LPS): 2.95 ± 0.14 ng/mL; TNF mean ± SE ([2]; 100 mg/kg oral 30 minutes before LPS, serum 1.5 hours after LPS): 1.26 ± 0.15 ng/mL; TNF production compared with control group (statement) ([2]; oral 30 or 100 mg/kg): suppressed the TNF production in a dose-dependent manner; Inhibition rate (Mouse solid tumor Meth A): 92.3%; Mice in which no cancerous tissue was formed (Mouse solid tumor Meth A): 5 out of 8; Weight of cancer mean ± SE (Mouse solid tumor Meth A): 0.05 ± 0.08 g; Weight of cancer mean ± SE (Mouse solid tumor Meth A; listed as dipropionylcyclopentenone): 0.05 g; Average days of survival (Meth A; intraperitoneal 10 mg/kg): 20.5 days; Prolongation rate (Meth A; intraperitoneal 10 mg/kg): 174%; 30-day survival number (Meth A; intraperitoneal 10 mg/kg): 0; Average days of survival (Meth A; oral 30 mg/kg): 17.3 days; Prolongation rate (Meth A; oral 30 mg/kg): >147%; 30-day survival number (Meth A; oral 30 mg/kg): 2

Source: US6548543B1, “Remedies or preventives containing cyclopentenone compounds as the active ingredient” (Takara Shuzo Co., Ltd., priority 1998, dated 2003)
